Activity calls are given as the source filed them. The rule behind the calls is not given here.
Columns and labels:
[1] = system: HCT-116; assay: Induction of cell cycle arrest in human HCT-116 cells assessed as accumulation of cells at G2/M phase at 0.5 uM incubated for 24 hrs by propidium iodide staining based flow cytometry (reference value: 28.37%); assay type: functional
[2] = biological target: Cyclin-dependent kinase 2 (Homo sapiens) (UniProt P24941); assay: Inhibition of CDK2 in human HCT-116 cells assessed as reduction in phosphorylation at Serine 807/811 residue incubated for 24 hrs by Western blot analysis; assay type: cell-based; conditions: dose 0.5-1 µM
[3] = system: HCT-116; assay: Downregulation of CDC25B expression in human HCT-116 cells at 0.5 to 1 uM incubated for 24 hrs by Western blot analysis; assay type: functional, cell-based; conditions: dose 0.5-1 µM
[4] = system: COLO 205; assay: Antiproliferative activity against human COLO 205 cells assessed as inhibition of cell growth incubated for 72 hrs by MTT assay; assay type: functional
[5] = system: HCT-116; assay: Induction of apoptosis in human HCT-116 cells assessed as necrotic cells at 1 uM incubated for 72 hrs by AnnexinV-FITC/propidium iodide staining based flow cytometry (Rvb =0.71%); assay type: functional
[6] = system: OAW-28; assay: Antiproliferative activity against human OAW-28 cells assessed as inhibition of cell growth incubated for 72 hrs by MTT assay; assay type: functional
[7] = biological target: Cyclin-dependent kinase 2/cyclin E (Homo sapiens, UniProt P24941); assay: Inhibition of CDK2/cyclin E (unknown origin) assessed as inhibition constant incubated for 30 to 60 mins presence of dithiothreitol by Cheng-Prusoff equation analysis; assay type: protein-complex assay
[8] = system: HCT-116; assay: Induction of apoptosis in human HCT-116 cells assessed as viable cells at 0.5 uM incubated for 72 hrs by AnnexinV-FITC/propidium iodide staining based flow cytometry (reference value: 93.43%); assay type: functional; conditions: read-out: Activity
[9] = system: A2780; assay: Antiproliferative activity against human A2780 cells assessed as inhibition of cell growth incubated for 72 hrs by MTT assay; assay type: functional
[10] = system: HCT-116; assay: Induction of apoptosis in human HCT-116 cells assessed as viable cells at 1 uM incubated for 72 hrs by AnnexinV-FITC/propidium iodide staining based flow cytometry (reference value: 93.43%); assay type: functional; conditions: read-out: Activity
[11] = system: NCI-H460; assay: Antiproliferative activity against human NCI-H460 cells assessed as inhibition of cell growth incubated for 72 hrs by MTT assay; assay type: functional
[12] = biological target: Cyclin-dependent kinase 1/cyclin B (Homo sapiens, UniProt P06493); assay: Inhibition of CDK1/Cyclin B (unknown origin) assessed as inhibition constant incubated for 30 to 60 mins presence of dithiothreitol by Cheng-Prusoff equation analysis; assay type: protein-complex assay
[13] = system: KM12; assay: Antiproliferative activity against human KM12 cells assessed as inhibition of cell growth incubated for 72 hrs by MTT assay; assay type: functional
[14] = system: HCT-116; assay: Induction of apoptosis in human HCT-116 cells assessed as increase in cleaved PARP level at 0.5 to 1 uM incubated for 24 hrs by Western blot analysis; assay type: functional, cell-based; conditions: dose 0.5-1 µM
[15] = system: U-937; assay: Antiproliferative activity against human U-937 cells assessed as inhibition of cell growth incubated for 72 hrs by MTT assay; assay type: functional
[16] = Antiproliferative activity against human COV318 cells assessed as inhibition of cell growth incubated for 72 hrs by MTT assay; assay type: functional
[17] = system: HCT-116; assay: Antiproliferative activity against human HCT-116 cells assessed as inhibition of cell growth incubated for 72 hrs by MTT assay; assay type: functional
[18] = system: OVCAR-5; assay: Antiproliferative activity against human OVCAR-5 cells assessed as inhibition of cell growth incubated for 72 hrs by MTT assay; assay type: functional
[19] = system: HCT-116; assay: Induction of cell cycle arrest in human HCT-116 cells assessed as accumulation of cells at sub G1 phase at 0.5 uM incubated for 24 hrs by propidium iodide staining based flow cytometry (reference value: 0.24%); assay type: functional
[20] = system: NCI-H82; assay: Antiproliferative activity against human NCI-H82 cells assessed as inhibition of cell growth incubated for 72 hrs by MTT assay; assay type: functional
[21] = system: OV-90; assay: Antiproliferative activity against human OV-90 cells assessed as inhibition of cell growth incubated for 72 hrs by MTT assay; assay type: functional
[22] = system: HCT-116; assay: Induction of cell cycle arrest in human HCT-116 cells assessed as accumulation of cells at G2/M phase at 1 uM incubated for 24 hrs by propidium iodide staining based flow cytometry (reference value: 28.37%); assay type: functional
[23] = system: HCT-116; assay: Induction of cell cycle arrest in human HCT-116 cells assessed as accumulation of cells at G1 phase at 1 uM incubated for 24 hrs by propidium iodide staining based flow cytometry (reference value: 51.33%); assay type: functional
[24] = biological target: Cyclin-dependent kinase 2 (Homo sapiens) (UniProt P24941); assay: Inhibition of CDK2 in human HCT-116 cells assessed as reduction in phosphorylation at Thr821 residue incubated for 24 hrs by Western blot analysis; assay type: cell-based; conditions: dose 0.5-1 µM
[25] = system: MDA-MB-231; assay: Antiproliferative activity against human MDA-MB-231 cells assessed as inhibition of cell growth incubated for 72 hrs by MTT assay; assay type: functional
[26] = biological target: Cyclin-dependent kinase 5/CDK5 activator 1 (Homo sapiens, UniProt Q00535); assay: Inhibition of CDK5/p25 (unknown origin) assessed as inhibition constant incubated for 30 to 60 mins presence of dithiothreitol by Cheng-Prusoff equation analysis; assay type: protein-complex assay
[27] = system: HCT-116; assay: Induction of apoptosis in human HCT-116 cells assessed as late apoptotic cells at 0.5 uM incubated for 72 hrs by AnnexinV-FITC/propidium iodide staining based flow cytometry (reference value: 2.91%); assay type: functional
[28] = Antiproliferative activity against human COV504 cells assessed as inhibition of cell growth incubated for 72 hrs by MTT assay; assay type: functional
[29] = system: HCT-116; assay: Induction of cell cycle arrest in human HCT-116 cells assessed as accumulation of cells at G1 phase at 0.5 uM incubated for 24 hrs by propidium iodide staining based flow cytometry (reference value: 51.33%); assay type: functional
[30] = system: HCT-116; assay: Induction of apoptosis in human HCT-116 cells assessed as necrotic cells at 0.5 uM incubated for 72 hrs by AnnexinV-FITC/propidium iodide staining based flow cytometry (Rvb =0.71%); assay type: functional
[31] = system: HCT-116; assay: Induction of cell cycle arrest in human HCT-116 cells assessed as accumulation of cells at sub G1 phase at 1 uM incubated for 24 hrs by propidium iodide staining based flow cytometry (reference value: 0.24%); assay type: functional
[32] = system: HT-29; assay: Antiproliferative activity against human HT-29 cells assessed as inhibition of cell growth incubated for 72 hrs by MTT assay; assay type: functional
[33] = system: MV4-11; assay: Antiproliferative activity against human MV4-11 cells assessed as inhibition of cell growth incubated for 72 hrs by MTT assay; assay type: functional
[34] = system: HCT-116; assay: Induction of cell cycle arrest in human HCT-116 cells assessed as accumulation of cells at S phase at 0.5 uM incubated for 24 hrs by propidium iodide staining based flow cytometry (reference value: 18.01%); assay type: functional
[35] = system: HCT-116; assay: Induction of apoptosis in human HCT-116 cells assessed as late apoptotic cells at 1 uM incubated for 72 hrs by AnnexinV-FITC/propidium iodide staining based flow cytometry (reference value: 2.91%); assay type: functional
[36] = system: HCT-116; assay: Induction of cell cycle arrest in human HCT-116 cells assessed as accumulation of cells at S phase at 1 uM incubated for 24 hrs by propidium iodide staining based flow cytometry (reference value: 18.01%); assay type: functional
[37] = system: HCT-116; assay: Induction of apoptosis in human HCT-116 cells assessed as early apoptotic cells at 1 uM incubated for 72 hrs by AnnexinV-FITC/propidium iodide staining based flow cytometry (reference value: 2.95%); assay type: functional
[38] = system: HCT-116; assay: Induction of DNA damage in human HCT-116 cells assessed as increase in H2AX phosphorylation at Ser139 residue at 0.5 to 1 uM incubated for 24 hrs by Western blot analysis; assay type: functional, cell-based; conditions: dose 0.5-1 µM
[39] = system: U-251; assay: Antiproliferative activity against human U-251 cells assessed as inhibition of cell growth incubated for 72 hrs by MTT assay; assay type: functional
[40] = system: HCT-116; assay: Induction of apoptosis in human HCT-116 cells assessed as early apoptotic cells at 0.5 uM incubated for 72 hrs by AnnexinV-FITC/propidium iodide staining based flow cytometry (reference value: 2.95%); assay type: functional
[41] = biological target: CDK9/cyclin T1 (Homo sapiens, UniProt P50750); assay: Inhibition of CDK9/cyclin T1 (unknown origin) assessed as inhibition constant incubated for 30 to 60 mins presence of dithiothreitol by Cheng-Prusoff equation analysis; assay type: protein-complex assay
[42] = system: ES-2; assay: Antiproliferative activity against human ES2 cells assessed as inhibition of cell growth incubated for 72 hrs by MTT assay; assay type: functional

Cyclin-dependent kinase 5/CDK5 activator 1, sequence (Q00535 whole entry): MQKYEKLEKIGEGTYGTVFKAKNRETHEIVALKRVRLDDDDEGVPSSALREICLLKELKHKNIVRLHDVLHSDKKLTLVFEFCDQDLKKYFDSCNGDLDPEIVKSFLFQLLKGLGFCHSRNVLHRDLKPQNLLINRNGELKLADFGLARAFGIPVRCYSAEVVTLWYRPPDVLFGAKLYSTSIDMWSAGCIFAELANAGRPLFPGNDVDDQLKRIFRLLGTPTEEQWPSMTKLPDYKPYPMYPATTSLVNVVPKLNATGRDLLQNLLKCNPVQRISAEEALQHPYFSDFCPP
Cyclin-dependent kinase 5/CDK5 activator 1, sequence (Q15078 whole entry, further chain): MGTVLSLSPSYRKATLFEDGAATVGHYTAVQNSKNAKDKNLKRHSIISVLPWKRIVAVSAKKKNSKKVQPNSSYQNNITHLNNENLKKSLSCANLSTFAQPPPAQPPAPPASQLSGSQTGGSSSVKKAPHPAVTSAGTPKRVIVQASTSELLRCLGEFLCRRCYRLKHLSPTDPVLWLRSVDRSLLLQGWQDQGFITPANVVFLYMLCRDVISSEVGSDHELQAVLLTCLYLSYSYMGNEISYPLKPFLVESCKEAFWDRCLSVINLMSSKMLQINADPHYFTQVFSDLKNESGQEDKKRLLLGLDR
CDK9/cyclin T1, sequence (O60563 whole entry): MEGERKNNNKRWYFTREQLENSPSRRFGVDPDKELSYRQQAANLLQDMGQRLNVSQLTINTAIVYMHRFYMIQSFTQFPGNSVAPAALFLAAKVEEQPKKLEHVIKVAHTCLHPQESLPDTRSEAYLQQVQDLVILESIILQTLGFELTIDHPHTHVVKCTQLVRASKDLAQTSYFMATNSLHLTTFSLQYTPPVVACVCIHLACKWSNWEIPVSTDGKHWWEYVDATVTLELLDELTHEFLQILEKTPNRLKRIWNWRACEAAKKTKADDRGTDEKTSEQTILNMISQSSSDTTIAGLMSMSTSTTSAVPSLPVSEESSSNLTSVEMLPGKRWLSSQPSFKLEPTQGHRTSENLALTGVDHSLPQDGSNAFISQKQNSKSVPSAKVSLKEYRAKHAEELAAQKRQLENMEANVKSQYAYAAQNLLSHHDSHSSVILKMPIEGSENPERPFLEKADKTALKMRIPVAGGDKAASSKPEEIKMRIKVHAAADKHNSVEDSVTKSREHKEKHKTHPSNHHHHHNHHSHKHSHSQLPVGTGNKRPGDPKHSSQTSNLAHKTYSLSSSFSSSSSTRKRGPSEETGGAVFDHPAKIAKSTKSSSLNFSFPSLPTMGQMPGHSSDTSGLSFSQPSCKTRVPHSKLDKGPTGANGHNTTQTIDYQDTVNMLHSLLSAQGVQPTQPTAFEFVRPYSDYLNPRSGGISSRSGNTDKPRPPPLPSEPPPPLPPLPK
CDK9/cyclin T1, sequence (P50750 whole entry): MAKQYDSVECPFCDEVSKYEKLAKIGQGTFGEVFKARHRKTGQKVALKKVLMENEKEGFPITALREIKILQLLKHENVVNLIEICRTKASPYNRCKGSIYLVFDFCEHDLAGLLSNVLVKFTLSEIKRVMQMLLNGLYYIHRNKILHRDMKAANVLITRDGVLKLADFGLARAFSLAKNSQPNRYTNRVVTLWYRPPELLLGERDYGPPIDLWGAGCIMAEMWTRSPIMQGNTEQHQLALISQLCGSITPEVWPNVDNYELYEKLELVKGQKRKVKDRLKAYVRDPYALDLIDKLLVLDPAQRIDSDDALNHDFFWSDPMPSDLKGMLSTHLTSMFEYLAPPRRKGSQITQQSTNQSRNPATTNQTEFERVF

- inhibition [2]: Dose-Dependent Effect
- GI50 [4]: 194 nM
- Ki [7]: 1 nM
- GI50 [9]: 74 nM
- GI50 [11]: 527 nM
- Ki [12]: 5 nM
- GI50 [15]: 145 nM
- GI50 [17]: 186 nM
- GI50 [18]: 108 nM
- GI50 [20]: 183 nM
- inhibition [24]: Dose-Dependent Effect
- GI50 [25]: 472 nM
- Ki [26]: 33 nM
- GI50 [32]: 291 nM
- GI50 [33]: 88 nM
- GI50 [39]: 695 nM
- Ki [41]: 17 nM
SMILES: Cn1cc(-c2nc(Nc3ccc(S(N)(=O)=O)cc3)ncc2Cl)cn1
- Activity [1]: 86.28%
- Activity [3]: Active
- Activity [5]: 1.83%
- GI50 [6]: 780 nM
- viability at 0.5 µM [8]: 77%
- viability at 1 µM [10]: 78.4%
- GI50 [13]: 558 nM
- Activity [14]: Active
- GI50 [16]: 545 nM
- Activity [19]: 0.51%
- GI50 [21]: 444 nM
- Activity [22]: 52.06%
- Activity [23]: 27.94%
- Activity [27]: 9.6%
- GI50 [28]: 768 nM
- Activity [29]: 4.24%
- Activity [30]: 1.19%
- Activity [31]: 2.11%
- Activity [34]: 7.94%
- Activity [35]: 5.01%
- Activity [36]: 18.5%
- Activity [37]: 4.78%
- Activity [38]: inactive
- Activity [40]: 12.2%
- GI50 [42]: 285 nM
